{"source": "patent US20050238581A1", "about": "“Dynamic hepatic recycling glucose tolerance test” (priority 2002, published 2005)", "key": {"[1]": {"test": "[1, 2-^13C2]-glucose HR-GTT in C57BL/6 and PPARα KO mice", "assay_type": "in vivo, C57BL/6 mice and PPARα KO mice", "conditions": "for glucose recycling rate constant (kHR), slope of M1/M2 ratio against time: regression analysis", "description": "Wild-type (C57BL/6) mice and PPARα KO mice were obtained. In this example, glucose was labeled with either stable isotopes of [1, 2-^13C2]-glucose, or [2-^2H]- and [6, 6-^2H2]-glucose and all isotopes were 99% enriched. The [1, 2-^13C2]-glucose, or a 1:1 mixture of [2-^2H]- and [6, 6-^2H2]-glucose, was then administered at 1 mg glucose/gm body weight by intraperitoneal injection. Blood was sampled at 0, 0.5, 1, 2, and 3 hours for [1, 2-^13C2]-glucose isotopomer analysis, and 0.5, 1 and 2 hours for deuterated glucose isotopomer analysis. Plasma glucose and lactate concentrations were determined by the use of a COBAS MIRA analyzer. All isotopomeric determinations were performed on a Hewlett Packard Mass Selective Detector (model 5973A) connected to an HP Gas Chromatograph (model 6890) using chemical ionization (CI) with 20% methane. The re-cycling of hepatic glucose, leading to the appearance of M1 glucose in blood, occurs when the glucose traverses the glucose<->G-6-P, pentose phosphate pathway, and possibly the TCA cycle. […] The slope of the increase in this ratio gives the in vivo glucose dependent futile re-cycling rate constant of glucose through G-6-P."}, "[2]": {"test": "intraperitoneal hepatic recycling glucose tolerance test (HRGTT) with [1, 2-^13C2]-glucose load", "assay_type": "in vivo, C57BL6 mice", "conditions": "for decrease in total amount of M2 glucose: compared to amount appearing in plasma between 0-60 minutes", "description": "Stable isotopes of the M2 isotopomer glucose was administered at 1 mg glucose/gm body weight by intraperitoneal injection. Animals were euthanized by an overdose of isoflurane anesthesia, and tissue from liver and skeletal muscle were rapidly dissected free, snap-frozen in liquid nitrogen, and stored at −80° C. until processed for isolation of RNA or glycogen. Cytosolic protein was extracted from the liver tissue after homogenization with 10 strikes in lysis buffer containing 0.25 M sucrose, I OmM Tris-HCL(pH7.4), 3 mM MgCL2, 0.1 mM PMSF, 20 mM NaF, 1 mM Na3VO4, 1 MM Na4P207, 1 μg/ml of leupeptin/aprotinin/pepstatin. The resulting cell lysate was filtered with 4 layers of cheesecloth. Nuclei were pelleted by centrifugation at 1000 g for 10 min. Mitochondria were precipitated by centrifugation at 15,000 g for 20 min from the supernatant. The cytosolic fraction was isolated as the supernatant obtained from last ultra-centrifugation at 100,000 g at 4° C. for 1 hr. Protein concentration from cytosol were measured by using an absorbance at 595 run (BCA kit from Pierce). 60 1 μg of protein extracts from cytosol were separated by 10% SDS-PAGE. The membrane blots were incubated with anti-GK at 1:2500 (v/v), anti-G6PDH at 1:2000 (v/v), anti-PEPCK at 1:500 (v/v), and anti-p-actin at 1:2000 (v/v), for either 1 hr in western washing buffer at RT or overnight at 4 C after blocking. The blots were hybridized with secondary antibodies coupled to horseradish peroxidase for 40 to 60 min at RT. Immunodetection was accomplished using enhanced chemiluminescence. Density of each band was determined by scanning the exposed film. The time course of glucose and lactate isotopomers in plasma, and glucose isotopomers in liver glycogen was determined using gas chromatography/mass spectrometry. The M1 glucose isotopomer, in which ^13C glucose can occupy the carbon 1 position, was produced via the action of the oxidative limb of the pentose phosphate pathway (PPP) on the administered M2 glucose isotopomer, and its re-entry into the gluconeogenic pathway via the non-oxidative limb of the PPP. The absorption of administered glucose was monitored by the time course of M2 isotopomer, and hepatic glucose recycling by the time course of M1 isotopomer of glucose."}}, "data": [{"molecule": "OC[C@H]1OC(O)[C@H](O)[C@@H](O)[C@@H]1O", "note": "(stereo partly shown) [[1,2-^13C2]-glucose]", "values": [{"measurement": "glucose recycling rate constant (kHR), slope of M1/M2 ratio against time", "setting": "[1]; C57BL/6 mice", "result": "0.1086 ± 0.0049", "unit": "per hour"}, {"measurement": "glucose recycling rate constant (kHR), slope of M1/M2 ratio against time", "setting": "[1]; PPARα KO mice, p<0.025 vs C57BL/6", "result": "0.0790 ± 0.0064", "unit": "per hour"}, {"measurement": "fall in plasma M2 levels, faster in PPARα KO than in C57BL/6 (overall glucose clearance)", "setting": "[1]; between 0.5 hours and 3.0 hours, p<0.001", "result": 32, "unit": "%"}, {"measurement": "decrease in total amount of M2 glucose", "setting": "[2]; 60-120 minutes", "result": 30, "unit": "%"}, {"measurement": "decrease in total amount of M2 glucose", "setting": "[2]; 120-180 minutes", "result": 65, "unit": "%"}, {"measurement": "plasma M2 enrichment after steady decline", "setting": "[2]; after the first 60 minutes, ip 1 mg/gm", "result": "20.1±1.3", "unit": "%"}, {"measurement": "enrichment of [1, 2-^13C2]-glucose (M2) in the plasma glucose pool", "setting": "[2]; enrichment rapidly achieved after ip injection of 1 mg/gm body weight", "result": "55±1.0", "unit": "%"}, {"measurement": "contribution of direct pathway from glucose uptake to glycogen glucose deposited", "setting": "[2]; glucose load 1 mg glucose/g body weight", "result": "less than 5%"}, {"measurement": "M2 isotopomer enrichment in liver glycogen glucose, start of decrease", "setting": "[2]; liver glycogen, earlier time (2 hours)", "result": 1.9, "unit": "%"}, {"measurement": "M2 isotopomer enrichment in liver glycogen glucose, end of decrease", "setting": "[2]; liver glycogen, later time (3 hours)", "result": 0.8, "unit": "%"}]}]}
